The record followed here is patent publication US8685974B2 (Bayer CropScience AG, priority 2009, dated 2014).

Where two headings read alike, the source gives them in different places. Marks after values point to notes of the source that are not given here.

As to `C=CC(C)n1cc(-c2ccnc(NC(C)C)n2)c(-c2ccc(Cl)s2)n1` (stereo not shown) [Example 123], where the note is “pH 2.7”, the log p was 3.02^[b] and the “logP value of the minor isomer (in parenthesis in column Isomer ratio [d])” value is “(2.73)”.
For the molecule `Clc1cc(-c2c[nH]nc2-c2ccc(Cl)s2)ccn1` [Example 40], the log p (pH 2.3) was 2.75^[a].
`N#CCn1cc(-c2ccncc2)c(-c2ccc(Cl)s2)n1` [Example 53]: where the note is “pH 2.7”, the log p is 1.4^[b] and the “logP value of the minor isomer (in parenthesis in column Isomer ratio [d])” value was “(1.10)”.
In the case of `CC(C)n1cc(-c2ccnc(Cl)n2)c(-c2ccc(Cl)s2)n1` [Example 192], the log p (pH 2.3) was 4.31^[a].
With `CCC(C)n1cc(-c2ccnc(NS(=O)(=O)N(C)C)c2)c(-c2ccc(Cl)s2)n1` (stereo not shown) [Example 217], the log p (pH 2.7) is 3.35^[b].
As to `CC(C)Nc1nccc(-c2cn(CC(F)F)nc2-c2ccc(Cl)s2)n1` [Example 162], the log p (pH 2.7) is 2.66^[b].
The same measure, in the same setting: the figure for `CC(C)=CCn1ncc(-c2ccncn2)c1-c1ccc(Cl)s1` [Example 29] is 3.44^[b].
Take `CC(C)Cn1ncc(-c2cc[n+]([O-])c(NCc3ccccc3)c2)c1-c1ccc(Cl)s1` [Example 75]: where the note is “pH 2.3”, the log p is 3.48^[a].
In the case of `FC(F)Cn1cc(-c2ccnc(Cl)c2)c(-c2ccc(Cl)s2)n1` [Example 314], the log p (pH 2.7) is 3.71^[b].
Take `CCC(C)n1nc(-c2ccc(Cl)s2)c(-c2ccncc2)c1Br` (stereo not shown) [4-[5-Bromo-1-secbutyl-(3/5)-(5-chloro-2-thienyl)-1H-pyrazol-4-yl]pyridine]: under “pH 2.7”, the “logP (pH2.7)” value was determined as 3.69.
`CCC(C)n1cc(-c2ccnc(NC(C)C)n2)c(-c2ccc(Cl)s2)n1` (stereo not shown) [Example 189]: the log p (pH 2.3) is 3.25^[a].
Regarding `C#CCn1cc(-c2ccncc2)c(-c2sccc2Cl)n1` [Example 131], under “pH 2.7”, the log p is 1.11^[b] and the “logP value of the minor isomer” value was “(1.10)”.
Take `COCn1cc(-c2ccnc(NC(C)C)n2)c(-c2ccc(Cl)s2)n1` [Example 115]: where the note is “pH 2.7”, the log p is 2.39^[b] and the “logP value of the minor isomer (in parenthesis in column Isomer ratio [d])” value is listed as “(2.39)”.
Regarding `C#CCNc1cc(-c2cn(CC(C)C)nc2-c2ccc(Cl)s2)cc[n+]1[O-]` [Example 84], the log p (pH 2.3) was 2.92^[a].
In the case of `CC(n1ncc(-c2ccncn2)c1-c1ccc(Cl)s1)C(C)(C)C` (stereo not shown) [Example 33], the log p (pH 2.7) was 4.46^[b].
For `CC(C)Nc1nccc(-c2cn(C3CCCC3)nc2-c2ccc(Cl)s2)n1` [4-[(3/5)-(5-Chloro-2-thienyl)-1-cyclopentyl-1H-pyrazol-4-yl]-2-(isopropylamino)pyrimidine], under “pH 2.7”, the “logP (pH2.7)” value was 3.61 and the “logP (pH2.7), minor isomer” value is recorded as 3.33.
On to `CCC(C)n1cc(-c2ccnc(NC(=O)C(C)(C)C)c2)c(-c2ccc(Cl)s2)n1` (stereo not shown) [Example 231], for which the log p (pH 2.7) was 4.35^[b].
Regarding `CC(C)n1cc(-c2ccnc(N)c2)c(-c2ccc(Cl)s2)n1` [4-[(3/5)-(5-Chloro-2-thienyl)-1-isopropyl-1H-pyrazol-4-yl]pyridin-2-amine], under “pH 2.7”, the “logP (pH2.7)” value is recorded as 1.78 and the “logP (pH2.7), minor isomer” value worked out at 1.72.
For the molecule `CC(=O)N(C(C)=O)c1cc(-c2cn(C)nc2-c2ccc(N(C(C)=O)C(C)=O)s2)ccn1` [Example 289], the log p (pH 2.7) was 1.84^[b].
Consider `CC(C)Cn1cc(-c2ccnc(NCc3ccccc3)n2)c(-c2ccc(Cl)s2)n1` [Example 93], for which, under “pH 2.3”, the log p is 4.31^[a].
Take `CCn1cc(-c2ccncc2)c(-c2cc(Cl)cs2)n1` [Example 156]: for the setting “pH 2.7”, the log p was 1.34^[b].
Take `CSc1nccc(-c2cn(C(C)C)nc2-c2ccc(Cl)s2)n1` [Example 222]: where the note is “pH 2.3”, the log p was 4.44^[a].
For `CC(C)Nc1nccc(-c2cn(CCCl)nc2-c2ccc(Cl)s2)n1` [Example 119], for the setting “pH 2.7”, the log p is 2.63^[b] and the “logP value of the minor isomer (in parenthesis in column Isomer ratio [d])” value is “(2.35)”.
Take `FC(F)(F)Cn1cc(-c2ccncc2)c(-c2sccc2Cl)n1` [Example 138]: the log p (pH 2.7) is 1.39^[b].
For `CC(C)Cn1cc(-c2cc[n+]([O-])c(N)c2)c(-c2ccc(Cl)s2)n1` [Example 77], under “pH 2.3”, the log p is 2.39^[a] and the “logP value of the minor isomer (in parenthesis in column Isomer ratio [d])” value is “(2.21)”.
Take `C=CCNc1nccc(-c2cn(C(C)C)nc2-c2ccc(Cl)s2)n1` [Example 184]: the log p (pH 2.3) is 3^[a].
As for `CCn1cc(-c2ccnc(NC(C)C)n2)c(-c2ccc(Cl)s2)n1` [Example 141], where the note is “pH 2.7”, the log p is 2.39^[b] and the “logP value of the minor isomer” value was “(2.20)”.
`CC(C)Cn1cc(-c2cc[n+]([O-])c(Cl)c2)c(-c2ccc(Cl)s2)n1` [Example 74]: where the note is “pH 2.3”, the log p is 3.04^[a] and the “logP value of the minor isomer (in parenthesis in column Isomer ratio [d])” value is recorded as “(2.82)”.
On to `C=CCn1cc(-c2ccncc2)c(-c2sccc2Cl)n1` [Example 136], for which, under “pH 2.7”, the log p is 1.22^[b] and the “logP value of the minor isomer” value is given as “(1.28)”.
Turning to `CC(C)Cn1cc(-c2ccnc(Cl)c2)c(-c2ccc(Cl)s2)n1` [Example 70], the log p (pH 2.3) was 4.85^[a].
For the molecule `CN(C)S(=O)(=O)Nc1cc(-c2cn(C)nc2-c2ccc(Cl)s2)ccn1` [Example 220], for the setting “pH 2.7”, the log p was 2.23^[b].
Consider `Clc1ccc(-c2c(-c3ccncc3)cnn2Cc2ccccc2)s1` [Example 42], for which the log p (pH 2.3) is 1.94^[a].
`CCn1cc(-c2ccnc(NC(=O)c3ccccc3)c2)c(-c2ccc(Cl)s2)n1` [Example 266]: the log p (pH 2.7) was 3.55^[b].
Same read-out and setting: the figure for `CCn1cc(-c2ccncc2)c(-c2sccc2Cl)n1` [Example 163] is 1.14^[b].
As for `CCC(CC)n1cc(-c2ccnc(NC(C)C)n2)c(-c2ccc(Cl)s2)n1` [Example 116], for the setting “pH 2.7”, the log p was 3.57^[b] and the “logP value of the minor isomer (in parenthesis in column Isomer ratio [d])” value was “(3.37)”.
Take `CC(=O)Nc1ccc(-c2nn(C)cc2-c2ccnc(N(C(C)=O)C(C)=O)c2)s1` [Example 290]: the log p (pH 2.7) was 1.39^[b].
Consider `CC(C)n1cc(-c2ccnc(N)n2)c(-c2ccc(Cl)s2)n1` [Example 185], for which the log p (pH 2.3) is 2.01^[a].
`CC(C)Cn1ncc(-c2cc[n+]([O-])c(Cl)c2)c1-c1ccc(Cl)s1` [2-Chloro-4-[1-isobutyl-5-(5-chloro-2-thienyl)-1H-pyrazol-4-yl]pyridine-N-oxyde]: the “logP (pH2.7)” value (pH 2.7) was determined as 3.06.
With `CS(=O)(=O)n1cc(-c2ccncc2)c(-c2ccc(Cl)s2)n1` [Example 88], the log p (pH 2.7) is 1.78^[b].
For `C=CCn1cc(-c2ccncc2)c(-c2ccc(Cl)s2)n1` [Example 48], where the note is “pH 2.7”, the log p was 1.65^[b] and the “logP value of the minor isomer (in parenthesis in column Isomer ratio [d])” value is given as “(1.50)”.
With `Cc1ccc(-c2[nH]ncc2-c2ccncc2)s1` [Example 35], under “pH 2.7”, the log p is 0.77^[b].
As to `CC(C)Nc1nccc(-c2cn(C3CCCC3)nc2-c2ccc(Cl)s2)n1` [Example 154], the log p (pH 2.7) is 3.61^[b].
As for `CCC(C)n1cc(-c2ccnc(C(=O)NC(C)C)c2)c(-c2ccc(Cl)s2)n1` (stereo not shown) [Example 99], the log p (pH 2.7) is 4.82^[b].
In the case of `CCOCCn1cc(-c2ccnc(NC(C)C)n2)c(-c2ccc(Cl)s2)n1` [Example 120], where the note is “pH 2.7”, the log p was 2.56^[b] and the “logP value of the minor isomer (in parenthesis in column Isomer ratio [d])” value is on record as “(2.33)”.
Consider `CCC(C)n1ncc(-c2ccncc2)c1-c1ccc(Cl)s1` (stereo not shown) [Example 9], for which the log p (pH 2.7) is 1.91^[b].
As to `CC(C)Cn1ncc(-c2ccnc(Cl)c2)c1-c1ccc(Cl)s1` [Example 72], the log p (pH 2.3) was 4.65^[a].
Regarding `Cn1cc(-c2ccnc(NC(=O)c3cccs3)c2)c(-c2ccc(Cl)s2)n1` [Example 273], where the note is “pH 2.7”, the log p is 3.04^[b].
As for `CC(C)n1cc(-c2ccnc(N=C(c3ccccc3)c3ccccc3)c2)c(-c2ccc(Cl)s2)n1` [4-[(3/5)-(5-Chloro-2-thienyl)-1-isopropyl-1H-pyrazol-4-yl]-N-(diphenylmethylene)pyridin-2-amine], under “pH 2.7”, the “logP (pH2.7)” value came out at 4.46 and the “logP (pH2.7), minor isomer” value was found to be 3.96.
With `CC(C)Nc1nccc(-c2cn(CC#N)nc2-c2ccc(Cl)s2)n1` [Example 122], the log p (pH 2.7) is 2.4^[b].
Still for that read-out and setting: the figure for `CCOCCn1cc(-c2ccncc2)c(-c2sccc2Cl)n1` [Example 135] is 1.23^[b].
For `CC(C)Cn1cc(-c2cc[n+]([O-])c(N)c2)c(-c2ccc(Cl)s2)n1` [2-Amino-4-[1-isobutyl-3-(5-chloro-2-thienyl)-1H-pyrazol-4-yl]pyridine N oxide], under “pH 2.7”, the “logP (pH2.7)” value is reported as 2.39.
As for `CC(C)NC(=O)n1cc(-c2ccncc2)c(-c2ccc(Cl)s2)n1` [Example 89], the log p (pH 2.7) is 2.26^[b].
Still for that read-out and setting: the figure for `CCC(C)n1cc(-c2ccnc(NC(=O)c3ccccc3)c2)c(-c2ccc(Cl)s2)n1` (stereo not shown) [Example 237] is 4.46^[b]; for `CC(C)n1cc(-c2ccnc(Cl)c2)c(-c2ccc(Cl)s2)n1` [Example 315] it is 4.44^[b].
Regarding `CC1(Cn2cc(-c3ccncc3)c(-c3cc4ccsc4s3)n2)CC1(Cl)Cl` (stereo not shown) [Example 326], for the setting “pH 2.7”, the log p was 2.62^[b] and the “logP value of the minor isomer (between parenthesis, Isomer ratio column)” value is “(2.46)”.
On to `CN(C)c1nccc(-c2c[nH]nc2-c2ccc(Cl)s2)n1` [Example 79], for which the log p (pH 2.3) is 1.69^[a].
On to `CC(n1ncc(-c2ccncc2)c1-c1ccc(Cl)s1)C(C)(C)C` (stereo not shown) [Example 19], for which the log p (pH 2.7) is 2.47^[b].
With `CCCNc1cc(-c2c[nH]nc2-c2ccc(Cl)s2)cc[n+]1[O-]` [Example 71], the log p (pH 2.3) was 1.9^[a].
Consider `COc1ccc(Cn2nc(-c3ccc(Cl)s3)c(-c3ccncc3)c2[Si](C)(C)C)cc1` [Example 102], for which the log p (pH 2.7) is 4.84^[b].
The same measure, in the same setting: to `Fc1ccc(-c2nn(CC=C(Cl)Cl)cc2-c2ccncc2)s1` [Example 346] belongs 1.43^[b].
For the molecule `C#CCNc1cc(-c2cnn(CC(C)C)c2-c2ccc(Cl)s2)cc[n+]1[O-]` [Example 83], where the note is “pH 2.3”, the log p is 2.7^[a].
Turning to `CCCCNC(=O)c1ccc(-c2[nH]ncc2-c2ccncc2)s1` [Example 37], the log p (pH 2.7) was 0.0^[b].
As for `CC(C)(C)n1ncc(-c2ccncc2)c1-c1ccc(Cl)s1` [Example 10], where the note is “pH 2.7”, the log p was 1.95^[b].
With `CC(C)Nc1nccc(-c2cn(Cc3ccccc3F)nc2-c2ccc(Cl)s2)n1` [Example 121], under “pH 2.7”, the log p was 3.39^[b] and the “logP value of the minor isomer (in parenthesis in column Isomer ratio [d])” value is listed as “(3.02”.
For `CC(=O)c1ccc(-c2[nH]ncc2-c2ccncc2)s1` [Example 36], the log p (pH 2.7) is 0.62^[b].
